Test results as given in US20230278972A1, “SUBSTITUTED HALOALKYL SULFONANILIDE HERBICIDES” (FMC Corporation, priority 2020, published 2023).

How the values were obtained:
Type in all cases: in vivo
[1] = system: Foxtail, Giant (giant foxtail, Setaria faberi); experiment: Test A preemergence, Foxtail, Giant; settings: Preemergence; for Plant response rating, Foxtail, Giant: 0 to 100 scale (0 no effect, 100 complete control); for Foxtail, Giant plant response rating: visual injury on 0 to 100 scale (0 no effect, 100 complete control), approximately 10 days
How it was run: (§1)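 Postemergence ratings come from foliar sprays onto one- to two-leaf plants of 2 to 10 cm grown in loam/sand; preemergence ratings come from a directed spray onto the soil of newly seeded pots. Formulation was a surfactant-containing non-phytotoxic solvent blend.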

[2] = system: Ryegrass, Italian (Italian ryegrass, Lolium multiflorum); experiment: Test A postemergence, Ryegrass, Italian; settings: Postemergence, 0 to 100 scale (0 no effect, 100 complete control); for Plant response rating, Ryegrass, Italian: 125 g ai/ha; for Ryegrass, Italian plant response rating: 500 g ai/ha, visual injury vs untreated controls after approx. 10 days
How it was run: as §1

[3] = system: Foxtail, Giant (giant foxtail, Setaria faberi); experiment: Test A postemergence, Foxtail, Giant; settings: Postemergence, 0 to 100 scale (0 no effect, 100 complete control); for Plant response rating, Foxtail, Giant: 125 g ai/ha; for Foxtail, Giant plant response rating: 500 g ai/ha, visual injury vs untreated controls after approx. 10 days
How it was run: as §1

[4] = system: barnyardgrass (Echinochloa crus-galli); experiment: Test A preemergence, barnyardgrass; settings: Preemergence, 0 to 100 scale (0 no effect, 100 complete control)
How it was run: as §1

kochia (Bassia scoparia) [5] = experiment: Test A postemergence, kochia; settings: Postemergence, 0 to 100 scale (0 no effect, 100 complete control); for Plant response rating, Kochia: 125 g ai/ha; for Kochia plant response rating: 500 g ai/ha, visual injury vs untreated controls after approx. 10 days
How it was run: as §1

[6] = system: Ryegrass, Italian (Italian ryegrass, Lolium multiflorum); experiment: Test A preemergence, Ryegrass, Italian; settings: Preemergence; for Plant response rating, Ryegrass, Italian: 0 to 100 scale (0 no effect, 100 complete control); for Ryegrass, Italian plant response rating: visual injury on 0 to 100 scale (0 no effect, 100 complete control), approximately 10 days
How it was run: as §1

[7] = system: blackgrass (Alopecurus myosuroides); experiment: Test A postemergence, blackgrass; settings: Postemergence, 0 to 100 scale (0 no effect, 100 complete control); for Plant response rating, Blackgrass: 125 g ai/ha; for Blackgrass plant response rating: 500 g ai/ha, visual injury vs untreated controls after approx. 10 days
How it was run: as §1

[8] = system: galium (catchweed bedstraw, Galium aparine); experiment: Test A postemergence, galium; settings: Postemergence, 0 to 100 scale (0 no effect, 100 complete control); for Plant response rating, Galium: 125 g ai/ha; for Galium plant response rating: 500 g ai/ha, visual injury vs untreated controls after approx. 10 days
How it was run: (§2)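 After sowing into a sand-amended loam, pots for the preemergence test were treated by spraying directly onto soil. In parallel, seedlings at the one- to two-leaf stage and 2 to 10 cm tall were treated postemergence with the identical surfactant-containing formulation.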

[9] = system: pigweed (Amaranthus retroflexus); experiment: Test A preemergence, pigweed; settings: for Plant response rating, Pigweed: 0 to 100 scale (0 no effect, 100 complete control); for Pigweed plant response rating: visual injury on 0 to 100 scale (0 no effect, 100 complete control), approximately 10 days
Excerpt: Seeds of plant species selected from barnyardgrass (Echinochloa crus-galli), kochia (Bassia scoparia), ragweed (common ragweed, Ambrosia artemisiifolia), Ryegrass, Italian (Italian ryegrass, Lolium multiflorum), Foxtail, Giant (giant foxtail, Setaria faberi), and pigweed (Amaranthus retroflexus) were planted into a blend of loam soil and sand and treated preemergence with a directed soil spray using test chemicals formulated in a non-phytotoxic solvent mixture which included a surfactant. At the same time, plants selected from these weed species and also wheat (Triticum aestivum), corn (Zea mays), blackgrass (Alopecurus myosuroides), and galium (catchweed bedstraw, Galium aparine) were planted in pots containing the same blend of loam soil and sand and treated with postemergence applications of test chemicals formulated in the same manner. Plants ranged in height from 2 to 10 cm and were in the one- to two-leaf stage for the postemergence treatment. […] A dash (-) response means no test result.

kochia (Bassia scoparia) [10] = experiment: Test A preemergence, kochia; settings: Preemergence; for Plant response rating, Kochia: 0 to 100 scale (0 no effect, 100 complete control); for Kochia plant response rating: visual injury on 0 to 100 scale (0 no effect, 100 complete control), approximately 10 days
How it was run: as §1

[11] = system: ragweed (common ragweed, Ambrosia artemisiifolia); experiment: Test A postemergence, ragweed; settings: Postemergence, 0 to 100 scale (0 no effect, 100 complete control); for Plant response rating, Ragweed: 125 g ai/ha; for Ragweed plant response rating: 500 g ai/ha, visual injury vs untreated controls after approx. 10 days
How it was run: as §1

corn (Zea mays) = experiment: Test A postemergence, corn; settings: Postemergence, 0 to 100 scale (0 no effect, 100 complete control); for Plant response rating, Corn: 125 g ai/ha; for Corn plant response rating: 500 g ai/ha, visual injury vs untreated controls after approx. 10 days
How it was run: as §1

[12] = system: pigweed (Amaranthus retroflexus); experiment: Test A postemergence, pigweed; settings: Postemergence, 0 to 100 scale (0 no effect, 100 complete control); for Plant response rating, Pigweed: 125 g ai/ha; for Pigweed plant response rating: 500 g ai/ha, visual injury vs untreated controls after approx. 10 days
How it was run: as §1

[13] = system: ragweed (common ragweed, Ambrosia artemisiifolia); experiment: Test A preemergence, ragweed; settings: Preemergence; for Plant response rating, Ragweed: 0 to 100 scale (0 no effect, 100 complete control); for Ragweed plant response rating: visual injury on 0 to 100 scale (0 no effect, 100 complete control), approximately 10 days
How it was run: as §1

[14] = system: wheat (Triticum aestivum); experiment: Test A postemergence, wheat; settings: Postemergence, 0 to 100 scale (0 no effect, 100 complete control); for Plant response rating, Wheat: 125 g ai/ha; for Wheat plant response rating: 500 g ai/ha, visual injury vs untreated controls after approx. 10 days
How it was run: as §2

[15] = 125 g ai/ha, visual injury, approx. 10 days

| SMILES | Plant response rating, Foxtail, Giant [1, 15] | Plant response rating, Ryegrass, Italian [2] | Ryegrass, Italian plant response rating [2] | Plant response rating, Foxtail, Giant [3] | Foxtail, Giant plant response rating [3] | Plant response rating, Barnyardgrass [4, 15] | Plant response rating, Barnyardgrass ([4]; 500 g ai/ha) | Plant response rating, Kochia (kochia (Bassia scoparia) [5]) | Kochia plant response rating (kochia (Bassia scoparia) [5]) | Plant response rating, Ryegrass, Italian [6, 15] | Plant response rating, Blackgrass [7] | Blackgrass plant response rating [7] | Plant response rating, Galium [8] | Galium plant response rating [8] | Plant response rating, Pigweed [9, 15] | Plant response rating, Kochia (kochia (Bassia scoparia) [10]; [15]) | Plant response rating, Ragweed [11] | Ragweed plant response rating [11] | Plant response rating, Corn (corn (Zea mays)) | Corn plant response rating (corn (Zea mays)) | also measured |
| --- | --- | --- | --- | --- | --- | --- | --- | --- | --- | --- | --- | --- | --- | --- | --- | --- | --- | --- | --- | --- | --- |
| Cc1cc(Cl)c(N(S(=O)(=O)C(F)(F)F)S(=O)(=O)C(F)(F)F)cc1C(=O)N1CCC(Cl)CC1 [Compound 200] | 90 | 20 | 20 | 0 | 20 | 30 | 100 | 10 | 40 | 30 | 0 | 0 | 60 | 90 | 100 | 60 | 0 | 30 | 0 | 20 | Plant response rating, Foxtail, Giant ([1]; 500 g ai/ha): 100; Plant response rating, Ryegrass, Italian ([6]; 500 g ai/ha): 90; Plant response rating, Pigweed ([9]; 500 g ai/ha): 100; Plant response rating, Kochia (kochia (Bassia scoparia) [10]; 500 g ai/ha): 90; Plant response rating, Pigweed [12]: 60; Pigweed plant response rating [12]: 90; Plant response rating, Ragweed [13, 15]: 40; Plant response rating, Ragweed ([13]; 500 g ai/ha): 90; Plant response rating, Wheat [14]: 20; Wheat plant response rating [14]: 70 |
| Cc1cc(Cl)c(NS(=O)(=O)C(F)(F)F)cc1C(=O)N1CCC(F)CC1 [Compound 201] | 50 | 30 | 70 | 50 | 90 | 50 | 100 | 60 | 90 | 60 | 20 | 30 | 90 | 90 | 100 | 90 | 80 | 90 | 20 | 50 | Plant response rating, Foxtail, Giant ([1]; 500 g ai/ha): 100; Plant response rating, Ryegrass, Italian ([6]; 500 g ai/ha): 90; Plant response rating, Pigweed ([9]; 500 g ai/ha): 100; Plant response rating, Kochia (kochia (Bassia scoparia) [10]; 500 g ai/ha): 100; Plant response rating, Pigweed [12]: 60; Pigweed plant response rating [12]: 100; Plant response rating, Ragweed [13, 15]: 70; Plant response rating, Ragweed ([13]; 500 g ai/ha): 100; Plant response rating, Wheat [14]: 60; Wheat plant response rating [14]: 70 |
| Cc1cc(C)c(C(=O)N2CCC(F)(F)C2)cc1NS(=O)(=O)C(F)(F)F [Compound 202] | 60 | 20 | 70 | 0 | 70 | 30 | 90 | 20 | 50 | 40 | 0 | 0 | 50 | 80 | 100 | 40 | 80 | 90 | 0 | 20 | Plant response rating, Foxtail, Giant ([1]; 500 g ai/ha): 70; Plant response rating, Ryegrass, Italian ([6]; 500 g ai/ha): 70; Plant response rating, Pigweed ([9]; 500 g ai/ha): 100; Plant response rating, Kochia (kochia (Bassia scoparia) [10]; 500 g ai/ha): 80; Plant response rating, Pigweed [12]: 70; Pigweed plant response rating [12]: 100; Plant response rating, Ragweed [13, 15]: 70; Plant response rating, Ragweed ([13]; 500 g ai/ha): 90; Plant response rating, Wheat [14]: 30; Wheat plant response rating [14]: 60 |
| Cc1cc(Cl)c(NS(=O)(=O)C(F)(F)F)cc1C(=O)N1CCC(Cl)CC1 [Compound 224] | 90 | 30 | 60 | 30 | 70 | 70 | 100 | 50 | 70 | 50 | 0 | 40 | 90 | 90 | 100 | 0 | 50 | 90 | 10 | 60 | Plant response rating, Foxtail, Giant ([1]; 500 g ai/ha): 100; Plant response rating, Ryegrass, Italian ([6]; 500 g ai/ha): 100; Plant response rating, Pigweed ([9]; 500 g ai/ha): 100; Plant response rating, Kochia (kochia (Bassia scoparia) [10]; 500 g ai/ha): 90; Plant response rating, Pigweed [12]: 60; Pigweed plant response rating [12]: 100; Plant response rating, Ragweed [13, 15]: 50; Plant response rating, Ragweed ([13]; 500 g ai/ha): 80; Plant response rating, Wheat [14]: 30; Wheat plant response rating [14]: 70 |
| Cc1cc(C)c(C2=NOC(C)(CCl)C2)cc1NS(=O)(=O)C(F)(F)F (stereo not drawn) [Compound 226] | 90 | 30 | 60 | 20 | 60 | 90 | 100 | 10 | 70 | 90 | 20 | 50 | 60 | 80 | 80 | 40 | 30 | 90 | 0 | 70 | Foxtail, Giant plant response rating ([1]; 500 g ai/ha): 100; Ryegrass, Italian plant response rating ([6]; 500 g ai/ha): 100; Pigweed plant response rating ([9]; 500 g ai/ha): 100; Kochia plant response rating (kochia (Bassia scoparia) [10]; 500 g ai/ha): 90; Plant response rating, Pigweed [12]: 30; Pigweed plant response rating [12]: 80; Plant response rating, Ragweed [13, 15]: 30; Ragweed plant response rating ([13]; 500 g ai/ha): 90; Plant response rating, Wheat [14]: 0; Wheat plant response rating [14]: 60 |
| Cc1cc(C)c(N(S(=O)(=O)C(F)(F)F)S(=O)(=O)C(F)(F)F)cc1C1=NOC(C)(CCl)C1 (stereo not drawn) [Compound 227] | 90 | 0 | 0 | 0 | 20 | 60 | 90 | 10 | 60 | 40 | 0 | 20 | 40 | 90 | 50 | 60 | 0 | 10 | 10 | 0 | Foxtail, Giant plant response rating ([1]; 500 g ai/ha): 100; Ryegrass, Italian plant response rating ([6]; 500 g ai/ha): 100; Pigweed plant response rating ([9]; 500 g ai/ha): 80; Kochia plant response rating (kochia (Bassia scoparia) [10]; 500 g ai/ha): 90; Plant response rating, Pigweed [12]: 20; Pigweed plant response rating [12]: 50; Plant response rating, Ragweed [13, 15]: 30; Ragweed plant response rating ([13]; 500 g ai/ha): 80; Plant response rating, Wheat [14]: 70; Wheat plant response rating [14]: 40 |
| Cc1cc(C)c(C2=NOC3(CCC3)C2)cc1NS(=O)(=O)C(F)(F)F [Compound 228] | 90 | 0 | 60 | 0 | 40 | 100 | 100 | 20 | 80 | 100 | 0 | 0 | 80 | 90 | 100 | 60 | 20 | 30 | 10 | 70 | Foxtail, Giant plant response rating ([1]; 500 g ai/ha): 100; Ryegrass, Italian plant response rating ([6]; 500 g ai/ha): 100; Pigweed plant response rating ([9]; 500 g ai/ha): 100; Kochia plant response rating (kochia (Bassia scoparia) [10]; 500 g ai/ha): 90; Plant response rating, Pigweed [12]: 30; Pigweed plant response rating [12]: 70; Plant response rating, Ragweed [13, 15]: 10; Ragweed plant response rating ([13]; 500 g ai/ha): 70; Plant response rating, Wheat [14]: 0; Wheat plant response rating [14]: 70 |
